Assay results published in patent publication US12528812B2 (Genentech, Inc., priority 2020, dated 2026).
Like-named read-outs stand apart in the source and are kept apart here.

How the values were obtained:
[1] = target: T1, recombinant human JAK1 kinase domain protein (Residues 854-1154) (Homo sapiens, UniProt P23458); assay: JAK1 biochemical assay (LabChip mobility shift, Ki); conditions: read-out: Biochem JAK1 Ki
T1 construct: human JAK1 kinase domain protein (Residues 854-1154); purchased Proteros Biostructures GmbH (Martinsried, Germany); host or cells: insect cells

[2] = tested on: IL-13-stimulated STAT6 phosphorylation in human lung bronchial epithelial BEAS-2B cell line; assay: P-STAT6 BEAS-2B + IL-13 cell assay; assay type: cell-based; conditions: BEAS2B cells, IL13 stimulation, read-out: Cellular JAK1 PSTAT6 BEAS2B + IL13
Outline: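 BEAS-2B cells grown 48 h at 37 °C, pre-treated 1 h with compound (10-point 1:2 dilution curve), then stimulated 15 min with human recombinant IL-13 (250 ng/mL stock). Lysate P-STAT6 (Tyr641) read by MSD sandwich ELISA with total-STAT6 capture; IC50 from four-parameter logistic fit of control-normalised data.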

[3] = target: Recombinant human JAK2 kinase domain protein (Residues 812-1132) (Homo sapiens, UniProt O60674); assay: JAK2 biochemical assay (LabChip mobility shift, Ki)
Sequence of Recombinant human JAK2 kinase domain protein (Residues 812-1132) (O60674 812-1132): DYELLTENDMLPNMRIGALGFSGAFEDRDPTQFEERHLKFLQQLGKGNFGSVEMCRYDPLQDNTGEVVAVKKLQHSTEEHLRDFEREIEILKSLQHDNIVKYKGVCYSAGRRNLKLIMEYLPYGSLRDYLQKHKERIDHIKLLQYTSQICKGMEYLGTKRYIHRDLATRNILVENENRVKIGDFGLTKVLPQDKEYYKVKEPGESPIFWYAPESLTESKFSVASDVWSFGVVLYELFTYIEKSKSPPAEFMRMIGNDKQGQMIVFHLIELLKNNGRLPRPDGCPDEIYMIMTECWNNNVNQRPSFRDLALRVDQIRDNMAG

T1 sequence (P23458 854-1154): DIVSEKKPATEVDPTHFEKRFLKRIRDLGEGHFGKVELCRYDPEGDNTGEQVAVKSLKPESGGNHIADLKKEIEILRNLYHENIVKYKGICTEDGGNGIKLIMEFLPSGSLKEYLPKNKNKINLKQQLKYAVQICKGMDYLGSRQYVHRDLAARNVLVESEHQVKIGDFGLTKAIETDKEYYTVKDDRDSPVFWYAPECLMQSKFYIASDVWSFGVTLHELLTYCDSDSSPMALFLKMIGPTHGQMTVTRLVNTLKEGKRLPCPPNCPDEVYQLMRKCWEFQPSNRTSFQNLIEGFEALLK

Row | Compound | Ki [1] [nM] | IC50 [2] [nM] | Ki ([3]; Biochem JAK2 Ki) [nM] | IC50 ([2]; Homo sapiens, BEAS-2B) [nM] | Ki ([3]; read-out: Biochem JAK2 Ki) [nM]
1 | Cn1cc(NC(=O)c2cnn3cccnc23)c(-c2cc(Oc3cnn(C4CC(O)C4)c3)ccc2OC(F)F)n1 (stereo not drawn) [Example 119, N-[3-[2-(difluoromethoxy)-5-[1-(3-hydroxycyclobutyl)pyrazol-4-yl]oxy-phenyl]-1-methyl-pyrazol-4-yl]pyrazolo[1,5-a]pyrimidine-3-carboxamide] | 0.9 | 41 | 0.52 | – | –
2 | Cn1cc(NC(=O)c2cnn3cccnc23)c(-c2cc(Oc3cnn(CC4(O)CNC4)c3)ccc2OC(F)F)n1 [Example 122, N-[3-[2-(difluoromethoxy)-5-[1-[(3-hydroxyazetidin-3-yl)methyl]pyrazol-4-yl]oxy-phenyl]-1-methyl-pyrazol-4-yl]pyrazolo[1,5-a]pyrimidine-3-carboxamide] | 0.52 | – | 0.56 | 390 | –
3 | Cn1cc(NC(=O)c2cnn3cccnc23)c(-c2cc(Oc3cnn(CC4CNC4)c3)ccc2OC(F)F)n1 [Example 123, N-[3-[5-[1-(azetidin-3-ylmethyl)pyrazol-4-yl]oxy-2-(difluoromethoxy)phenyl]-1-methyl-pyrazol-4-yl]pyrazolo[1,5-a]pyrimidine-3-carboxamide] | 0.61 | – | 0.74 | 370 | –
4 | Cn1cc(NC(=O)c2cnn3cccnc23)c(-c2cc(Oc3cnn(CC(C)(C)O)c3)ccc2OC(F)F)n1 [Example 124, N-[3-[2-(difluoromethoxy)-5-[1-(2-hydroxy-2-methyl-propyl)pyrazol-4-yl]oxy-phenyl]-1-methyl-pyrazol-4-yl]pyrazolo[1,5-a]pyrimidine-3-carboxamide] | 0.39 | – | 0.21 | 29 | –
5 | Cn1cc(NC(=O)c2cnn3cccnc23)c(-c2cc(Oc3cnn(CC4COC4)c3)ccc2OC(F)F)n1 [Example 125, N-[3-[2-(difluoromethoxy)-5-[1-(oxetan-3-ylmethyl)pyrazol-4-yl]oxy-phenyl]-1-methyl-pyrazol-4-yl]pyrazolo[1,5-a]pyrimidine-3-carboxamide] | 0.82 | – | 0.38 | 87 | –
6 | Cn1cc(NC(=O)c2cnn3cccnc23)c(-c2cc(Oc3cnn(CCN)c3)ccc2OC(F)F)n1 [Example 126, N-[3-[5-[1-(2-aminoethyl)pyrazol-4-yl]oxy-2-(difluoromethoxy)phenyl]-1-methyl-pyrazol-4-yl]pyrazolo[1,5-a]pyrimidine-3-carboxamide] | 1.1 | – | 0.91 | 67 | –
7 | CN1CC(Cn2cc(Oc3ccc(OC(F)F)c(-c4nn(C)cc4NC(=O)c4cnn5cccnc45)c3)cn2)C1 [Example 127, N-[3-[2-(difluoromethoxy)-5-[1-[(1-methylazetidin-3-yl)methyl]pyrazol-4-yl]oxy-phenyl]-1-methyl-pyrazol-4-yl]pyrazolo[1,5-a]pyrimidine-3-carboxamide] | 1.6 | – | 1.5 | 46 | –
8 | CN(C)C(=O)Cc1ccc(Oc2ccc(OC(F)F)c(-c3nn(C)cc3NC(=O)c3cnn4cccnc34)c2)cc1 [Example 129, N-[3-[2-(difluoromethoxy)-5-[4-[2-(dimethylamino)-2-oxo-ethyl]phenoxy]phenyl]-1-methyl-pyrazol-4-yl]pyrazolo[1,5-a]pyrimidine-3-carboxamide] | 0.27 | – | 0.15 | 14 | –
9 | CN(C)C(=O)c1ccc(Oc2ccc(OC(F)F)c(-c3n[nH]cc3NC(=O)c3cnn4cccnc34)c2)cc1 [Example 130, N-[3-[2-(difluoromethoxy)-5-[4-(dimethylcarbamoyl)phenoxy]phenyl]-1-1H-pyrazol-4-yl]pyrazolo[1,5-a]pyrimidine-3-carboxamide] | 0.46 | – | 0.23 | 24 | –
10 | CNC(=O)c1ccc(Oc2ccc(OC(F)F)c(-c3nn(C)cc3NC(=O)c3cnn4cccnc34)c2)cc1 [Example 131, N-[3-[2-(difluoromethoxy)-5-[4-(methylcarbamoyl)phenoxy]phenyl]-1-methyl-pyrazol-4-yl]pyrazolo[1,5-a]pyrimidine-3-carboxamide] | 0.41 | – | 0.24 | 23 | –
11 | Cn1cc(NC(=O)c2cnn3cccnc23)c(-c2cc(Oc3cnn(C4CCC4O)c3)ccc2OC(F)F)n1 (stereo not drawn) [Example 134, N-[3-[2-(difluoromethoxy)-5-[1-(2-hydroxycyclobutyl)pyrazol-4-yl]oxy-phenyl]-1-methyl-pyrazol-4-yl]pyrazolo[1,5-a]pyrimidine-3-carboxamide] | 0.42 | – | 0.26 | 16 | –
12 | Cn1cc(NC(=O)c2cnn3cccnc23)c(-c2cc(Oc3cnn(C4CCC4O)c3)ccc2OC(F)F)n1 (stereo not drawn) [Example 135, N-[3-[2-(difluoromethoxy)-5-[1-(2-hydroxycyc1obutyl)pyrazol-4-yl]oxy-phenyl]-1-methyl-pyrazol-4-yl]pyrazolo[1,5-a]pyrimidine-3-carboxamide] | 0.25 | 15 | 0.16 | – | –
13 | Cn1cc(NC(=O)c2cnn3cccnc23)c(-c2cc(Oc3ccc(C(N)=O)cc3)ccc2OC(F)F)n1 [Example 136, N-[3-[5-(4-carbamoylphenoxy)-2-(difluoromethoxy)phenyl]-1-methyl-pyrazol-4-yl]pyrazolo[1,5-a]pyrimidine-3-carboxamide] | 0.5 | – | 0.23 | 46 | –
14 | O=C(Nc1c[nH]nc1-c1cc(Oc2cccc(C3(O)CNC3)c2)ccc1OC(F)F)c1cnn2cccnc12 [Example 137, N-[3-[2-(difluoromethoxy)-5-[3-(3-hydroxyazetidin-3-yl)phenoxy]phenyl]-1H-pyrazol-4-yl]pyrazolo[1,5-a]pyrimidine-3-carboxamide;2,2,2-trifluoroacetic acid] | 0.82 | 1000 | – | – | 0.51
15 | CN1CC(O)(c2cccc(Oc3ccc(OC(F)F)c(-c4n[nH]cc4NC(=O)c4cnn5cccnc45)c3)c2)C1 [Example 138, N-[3-[2-(difluoromethoxy)-5-[3-(3-hydroxy-l-methyl-azetidin-3-yl)phenoxy]phenyl]-1H-pyrazol-4-yl]pyrazolo[1,5-a]pyrimidine-3-carboxamide] | 0.55 | 150 | – | – | 0.4
16 | CN(C)C(=O)c1ccc(Oc2ccc(OC(F)F)c(-c3nn(C4COC4)cc3NC(=O)c3cnn4cccnc34)c2)cc1 [Example 142, 3-[2-(difluoromethoxy)-5-[4-(dimethylcarbamoyl)phenoxy]phenyl 1-1-(oxetan-3-yl)pyrazol-4-yl]pyrazolo[1,5-a]pyrimidine-3-carboxamide] | 0.64 | – | 0.39 | 22 | –
17 | CN1CC(CC#N)(c2ccc(Oc3ccc(OC(F)F)c(-c4nn(C)cc4NC(=O)c4cnn5cccnc45)c3)cc2)C1 [Example 145, N-[3-[5-[4-[3-(cyanomethyl)-1-methyl-azetidin-3-yl]phenoxy]-2-(difluoromethoxy)phenyl]-1-methyl-pyrazol-4-yl]pyrazolo[1,5-a]pyrimidine-3-carboxamide] | 5.5 | – | 3.1 | 160 | –
18 | CN1CCN(C(=O)Cc2ccc(Oc3ccc(OC(F)F)c(-c4nn(C)cc4NC(=O)c4cnn5cccnc45)c3)cc2)CC1 [Example 146, N-[3-[2-(difluoromethoxy)-5-[4-[2-(4-methylpiperazin-1-yl)-2-oxo-ethyl]phenoxy]phenyl]-1-methyl-pyrazol-4-yl]pyrazolo[1,5-a]pyrimidine-3-carboxamide] | 0.62 | – | 0.29 | 40 | –
